Measurements: article PMC10254914, “Targeting Transcriptional CDKs 7, 8, and 9 with Anilinopyrimidine Derivatives as Anticancer Agents: Design, Synthesis, Biological Evaluation and In Silico Studies” (Molecules, 2023)

How the values were obtained:
[1] = test system: HeLa (cervical epithelioid carcinoma); test: MTT antiproliferative assay, HeLa; settings: Homo sapiens, read-out: IC50 (µM) HeLa
Description: (§1) The cell lines mentioned above were used to determine the inhibitory effects of the compounds on cell growth using the MTT assay.

[2] = test system: MCF7 (mammary gland breast cancer); test: MTT antiproliferative assay, MCF7; settings: Homo sapiens, MCF7, read-out: IC50 (µM) MCF7
Description: as §1

[3] = test system: HepG2 (hepatocellular carcinoma); test: MTT antiproliferative assay, HepG2; settings: Homo sapiens, HepG2, read-out: IC50 (µM) HepG2
Description: as §1

[4] = test system: HCT116 (colorectal carcinoma); test: MTT antiproliferative assay, HCT116; settings: Homo sapiens, HCT-116, read-out: IC50 (µM) HCT116
Description: as §1

[5] = test system: normal fibroblast cell line, WI-38; test: MTT cytotoxicity in normal fibroblasts WI-38; settings: Homo sapiens, WI-38, read-out: IC50 (µM) WI-38
Description: The MTT assay was performed to evaluate the in vitro antitumor activity of the synthesized 4-anilinoquinazolines according to a previously reported method [59, 60, 61, 62, 63].

CDK9/CycT1 [6] = target: T1, CDK9/CycT1 (Homo sapiens, UniProt P50750); test: Ligand efficiency and ligand lipophilic efficiency (DataWarrior); settings: for LE: LE=−RTlnIC50/N; for LLE: LLE=pIC50−clogP
Description: Ligand efficiency is an important parameter that is widely used in the development of drug measures to quantify the molecular properties, particularly the size and lipophilicity of small molecules, required to gain binding affinity to a drug target. The LE values of the synthesized compounds were measured using DataWarrior employing the following equation [48]: LE=−RTlnIC50/N where R is the universal gas constant, T is the absolute temperature in Kelvin, and N represents the number of heavy atoms, that is, non-hydrogen atoms in the drug.
LE is widely used for the selection and optimization of fragments, hits, and leads. […] Compounds with LE values higher than 0.3 are promising lead compounds.
In drug discovery and development, it is challenging to optimize the compound activity while maintaining a constant lipophilicity. As a result, LLE is an effective approach to control molecule lipophilicity to evade any “molecular obesity” through lead optimization. These were obtained via DataWarrior, according to the following equation [50]: LLE=pIC50−clogP
An acceptable lead compound should have an LLE value ≥5. As depicted in Table 6, 5j has acceptable LLE values. However, other compounds have values below the recommended limit.

CDK7/CycT1 = CDK7/CycT1 (Homo sapiens, UniProt P50613); test: In vitro CDK7 enzyme inhibition assay
Description: (§2) The CDK enzyme assay was performed as previously described [63].

CDK8 = CDK8 (Homo sapiens, UniProt P49336); test: In vitro CDK8 enzyme inhibition assay
Description: as §2

CDK9/CycT1 [7] = target: T1, CDK9/CycT1; test: In vitro CDK9/cyclin T1 enzyme inhibition assay
Description: as §2

[8] = test system: HCT116, HepG2, HeLa, MCF7 cancer cell lines; test: MTT assay, ranges over the cancer cell line panel; settings: Homo sapiens, read-out: IC50 range over the tested cancer cell lines
Description: as §1

[9] = pIC 50, from the CDK9 IC50 of Table 6
[10] = IC50 (µM) CDK9/CycT1, dose-response curves, repeated in Table 6

Chain of CDK7/CycT1 (P50613 whole entry): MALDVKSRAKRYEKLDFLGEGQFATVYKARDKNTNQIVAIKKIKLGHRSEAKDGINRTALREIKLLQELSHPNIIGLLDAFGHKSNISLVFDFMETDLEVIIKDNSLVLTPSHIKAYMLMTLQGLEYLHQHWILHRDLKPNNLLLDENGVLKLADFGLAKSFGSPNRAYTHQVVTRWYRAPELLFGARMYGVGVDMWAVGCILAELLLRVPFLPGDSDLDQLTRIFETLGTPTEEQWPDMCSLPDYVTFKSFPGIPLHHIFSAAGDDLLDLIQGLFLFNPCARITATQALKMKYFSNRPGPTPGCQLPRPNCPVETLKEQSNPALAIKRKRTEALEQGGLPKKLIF
Chain of CDK7/CycT1 (P51946 whole entry partner): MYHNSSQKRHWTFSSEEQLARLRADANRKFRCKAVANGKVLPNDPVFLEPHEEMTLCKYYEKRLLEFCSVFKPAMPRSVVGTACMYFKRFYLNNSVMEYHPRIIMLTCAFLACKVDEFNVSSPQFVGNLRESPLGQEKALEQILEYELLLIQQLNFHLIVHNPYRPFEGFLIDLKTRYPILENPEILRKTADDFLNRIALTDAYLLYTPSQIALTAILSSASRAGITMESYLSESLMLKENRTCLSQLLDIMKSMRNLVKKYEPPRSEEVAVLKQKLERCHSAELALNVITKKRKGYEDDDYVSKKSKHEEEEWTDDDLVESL
T1 sequence (P50750 whole entry): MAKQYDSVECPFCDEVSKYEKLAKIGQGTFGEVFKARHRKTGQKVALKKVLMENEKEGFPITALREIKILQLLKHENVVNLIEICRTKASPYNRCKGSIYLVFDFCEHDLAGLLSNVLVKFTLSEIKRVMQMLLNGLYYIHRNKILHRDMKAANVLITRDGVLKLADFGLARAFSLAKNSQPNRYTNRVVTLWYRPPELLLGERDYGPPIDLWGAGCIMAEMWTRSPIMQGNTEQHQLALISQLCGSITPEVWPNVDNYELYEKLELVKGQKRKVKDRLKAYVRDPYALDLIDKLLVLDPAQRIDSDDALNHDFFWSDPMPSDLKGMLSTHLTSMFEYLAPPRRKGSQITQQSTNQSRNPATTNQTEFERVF
T1 sequence (O60563 whole entry partner): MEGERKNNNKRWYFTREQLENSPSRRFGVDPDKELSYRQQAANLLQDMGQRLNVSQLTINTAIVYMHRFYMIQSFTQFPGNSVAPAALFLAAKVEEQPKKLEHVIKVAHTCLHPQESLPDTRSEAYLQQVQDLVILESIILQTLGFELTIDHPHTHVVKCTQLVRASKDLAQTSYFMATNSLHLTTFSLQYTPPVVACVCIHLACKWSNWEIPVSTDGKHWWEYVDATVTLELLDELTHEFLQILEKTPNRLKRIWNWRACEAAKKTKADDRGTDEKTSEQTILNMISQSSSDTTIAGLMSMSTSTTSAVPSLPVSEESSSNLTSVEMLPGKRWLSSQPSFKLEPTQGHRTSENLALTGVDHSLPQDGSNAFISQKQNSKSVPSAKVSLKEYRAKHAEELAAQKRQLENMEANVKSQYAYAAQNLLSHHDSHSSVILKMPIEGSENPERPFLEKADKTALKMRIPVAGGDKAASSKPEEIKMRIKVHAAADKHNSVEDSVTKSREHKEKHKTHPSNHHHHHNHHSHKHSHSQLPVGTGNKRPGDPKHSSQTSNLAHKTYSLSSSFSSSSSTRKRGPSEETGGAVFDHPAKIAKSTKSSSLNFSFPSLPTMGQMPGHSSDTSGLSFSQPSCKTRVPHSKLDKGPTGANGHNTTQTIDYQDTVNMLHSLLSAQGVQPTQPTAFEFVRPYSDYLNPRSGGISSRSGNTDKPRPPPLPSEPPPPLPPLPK
Chain of CDK8 (P49336 whole entry): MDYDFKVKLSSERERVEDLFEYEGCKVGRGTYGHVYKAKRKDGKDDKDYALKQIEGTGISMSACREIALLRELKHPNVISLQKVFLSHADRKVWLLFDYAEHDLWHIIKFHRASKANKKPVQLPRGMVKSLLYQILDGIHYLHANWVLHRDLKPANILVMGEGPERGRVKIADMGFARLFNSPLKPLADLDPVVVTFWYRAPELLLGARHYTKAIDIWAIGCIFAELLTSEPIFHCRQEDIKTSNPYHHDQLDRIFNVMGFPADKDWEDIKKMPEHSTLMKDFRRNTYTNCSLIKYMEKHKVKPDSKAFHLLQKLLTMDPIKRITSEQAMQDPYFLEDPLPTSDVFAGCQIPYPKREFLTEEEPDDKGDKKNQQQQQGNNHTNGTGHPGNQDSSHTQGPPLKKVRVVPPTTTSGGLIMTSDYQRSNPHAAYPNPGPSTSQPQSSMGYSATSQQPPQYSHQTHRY
Chain of CDK8 (P24863 whole entry partner): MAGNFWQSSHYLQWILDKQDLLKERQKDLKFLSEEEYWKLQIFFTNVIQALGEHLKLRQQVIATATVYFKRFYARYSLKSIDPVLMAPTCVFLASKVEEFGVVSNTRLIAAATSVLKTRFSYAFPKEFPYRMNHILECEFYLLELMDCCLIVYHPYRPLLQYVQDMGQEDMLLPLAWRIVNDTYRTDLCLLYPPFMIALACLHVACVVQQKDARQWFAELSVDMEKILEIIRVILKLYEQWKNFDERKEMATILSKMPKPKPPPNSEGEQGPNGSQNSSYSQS

| Structure (SMILES) | melting point | IC50 [1] | IC50 [2] | IC50 [3] | IC50 [4] | IC50 [5] | LE (CDK9/CycT1 [6]) | LLE (CDK9/CycT1 [6]) | IC50 (CDK7/CycT1) | IC50 (CDK8) | IC50 (CDK9/CycT1 [7]; [9]) | IC50 (CDK9/CycT1 [7]; [10]) | IC50 [8] |
| --- | --- | --- | --- | --- | --- | --- | --- | --- | --- | --- | --- | --- | --- |
| N#Cc1cnc(N)nc1-c1ccc(F)cc1 [Compound 3h, 2-amino-4-(4-fluorophenyl)pyrimidine-5-carbonitrile] | 214 to 216 °C | 82.5 ± 4.1 µM | 59 ± 3.4 µM | 67 ± 3.5 µM | 94.2 ± 5.3 µM | > 100 µM | – | – | – | – | – | – | – |
| N#Cc1cnc(N)nc1-c1ccccc1 [Compound 3f, 2-amino-4-phenylpyrimidine-5-carbonitrile] | – | 18.2 ± 1.4 µM | 6.08 ± 0.4 µM | 8.18 ± 0.8 µM | 30.5 ± 2.1 µM | 55.2 ± 3.2 µM | – | – | – | – | – | – | – |
| NS(=O)(=O)c1cccc(Nc2nccc(-c3ccccn3)n2)c1 [Compound 5h, 3-((4-(Pyridin-2-yl)pyrimidin-2-yl)amino)benzenesulfonamide] | – | 25.4 ± 1.9 µM | 14.3 ± 1.2 µM | 28 ± 2.1 µM | 35.1 ± 2.3 µM | > 100 µM | 0.3868 | 4.8844 | 3.18 µM | 6.56 µM | 0.191 µM | – | – |
| Nc1nccc(-c2ccc(Cl)cc2)n1 [Compound 3b, 4-(4-chlorophenyl)pyrimidin-2-amine] | – | 15.2 ± 1.2 µM | 10.2 ± 0.9 µM | 18.9 ± 1.3 µM | 29.1 ± 2 µM | 93.9 ± 5.1 µM | – | – | – | – | – | – | – |
| N#Cc1cnc(Nc2cccc(S(N)(=O)=O)c2)nc1-c1ccc(Cl)cc1 [Compound 5k, 3-((4-(4-Chlorophenyl)-5-cyanopyrimidin-2-yl)amino)benzenesulfonamide] | – | 66.2 ± 3.4 µM | 39.5 ± 2.3 µM | 48.6 ± 2.7 µM | 75.3 ± 4.3 µM | 27.1 ± 2.2 µM | 0.3384 | 3.4615 | 1.73 µM | 3.66 µM | – | 0.613 µM | – |
| Nc1nccc(-c2ccc(C(F)(F)F)cc2)n1 [Compound 3d, 4-(4-(trifluoromethyl)phenyl)pyrimidin-2-amine] | – | > 100 µM | 87.1 ± 4.6 µM | 91.7 ± 4.9 µM | > 100 µM | > 100 µM | – | – | – | – | – | – | – |
| NS(=O)(=O)c1cccc(Nc2nccc(-c3cnccn3)n2)c1 [Compound 5j, 3-((4-(Pyrazin-2-yl)pyrimidin-2-yl)amino)benzenesulfonamide] | 288 to 290 °C | 92.4 ± 4.8 µM | 71.3 ± 4 µM | 85.3 ± 4.3 µM | > 100 µM | 60.5 ± 3.7 µM | 0.3867 | 5.5526 | 1.46 µM | 4.05 µM | 0.111 µM | – | – |
| COc1ccc(-c2ccnc(N)n2)cc1 [Compound 3c, 4-(4-methoxyphenyl)pyrimidin-2-amine] | – | 86.2 ± 4.3 µM | 62.1 ± 3.6 µM | 74.4 ± 3.7 µM | > 100 µM | 58.1 ± 3.6 µM | – | – | – | – | – | – | – |
| NS(=O)(=O)c1cccc(Nc2nccc(-c3ccc(C(F)(F)F)cc3)n2)c1 [Compound 5d, 3-((4-(4-(Trifluoromethyl)phenyl)pyrimidin-2-yl)amino)benzenesulfonamide] | 150 to 152 °C | 22.2 ± 1.7 µM | 8.72 ± 0.7 µM | 11.7 ± 1 µM | 33.8 ± 2.2 µM | 51.9 ± 3.1 µM | 0.3254 | 3.0453 | 0.661 µM | 0.716 µM | 0.0729 µM | – | 1 to 10 µM |
| N#Cc1cnc(N)nc1-c1ccc(Cl)cc1 [Compound 3g, 2-amino-4-(4-chlorophenyl)pyrimidine-5-carbonitrile] | – | 34.7 ± 2.1 µM | 52.9 ± 2.9 µM | 44.2 ± 2.5 µM | 45 ± 2.6 µM | 82.7 ± 4.8 µM | – | – | – | – | – | – | – |
| NS(=O)(=O)c1cccc(Nc2nccc(-c3ccc(OC(F)(F)F)cc3)n2)c1 [Compound 5e, 3-((4-(4-(Trifluoromethoxy)phenyl)pyrimidin-2-yl)amino)benzenesulfonamide] | 252 to 254 °C | 38.8 ± 2.5 µM | 74 ± 4.2 µM | 81.3 ± 4.1 µM | 56.6 ± 3.1 µM | 64.3 ± 3.9 µM | 0.3129 | 2.7773 | 1.1 µM | 1.89 µM | 0.149 µM | – | – |
| NS(=O)(=O)c1cccc(Nc2nccc(-c3ccccc3)n2)c1 [Compound 5a, 3-((4-Phenylpyrimidin-2-yl)amino)benzenesulfonamide] | – | 11.5 ± 0.9 µM | 3.84 ± 0.2 µM | 7.84 ± 0.6 µM | 25.9 ± 1.8 µM | 37.9 ± 2.5 µM | 0.3869 | 3.9758 | 0.875 µM | 2.3 µM | – | 0.449 µM | 1 to 10 µM |
| NS(=O)(=O)c1cccc(Nc2nccc(-c3ccc(Cl)cc3)n2)c1 [Compound 5b, 3-((4-(4-Chlorophenyl)pyrimidin-2-yl)amino)benzenesulfonamide] | – | 36.3 ± 2.3 µM | 43.7 ± 2.5 µM | 40.9 ± 2.4 µM | 53.8 ± 2.9 µM | 78.5 ± 4.4 µM | 0.3683 | 3.3262 | 3.01 µM | 3.81 µM | 0.0589 µM | – | – |
| N#Cc1cnc(Nc2cccc(S(N)(=O)=O)c2)nc1-c1ccc(F)cc1 [Compound 5l, 3-((5-Cyano-4-(4-fluorophenyl)pyrimidin-2-yl)amino)benzenesulfonamide] | – | 74.9 ± 3.7 µM | 46 ± 2.6 µM | 56.2 ± 3.2 µM | 83.7 ± 4.6 µM | 39.3 ± 2.7 µM | 0.3394 | 3.9856 | 1.92 µM | 1.65 µM | – | 0.967 µM | – |
| NS(=O)(=O)c1cccc(Nc2nccc(-c3ccncc3)n2)c1 [Compound 5i, 3-((4-(Pyridin-4-yl)pyrimidin-2-yl)amino)benzenesulfonamide] | – | 63.7 ± 3.2 µM | 32.2 ± 2.1 µM | 52.6 ± 2.9 µM | 72.2 ± 4 µM | 19.7 ± 1.3 µM | 0.3868 | 4.9754 | 4.33 µM | 4.37 µM | 1.67 µM | 1.67 µM | – |
| NS(=O)(=O)c1cccc(Nc2nccc(-c3ccc([N+](=O)[O-])cc3)n2)c1 [Compound 5g, 3-((4-(4-Nitrophenyl)pyrimidin-2-yl)amino)benzenesulfonamide] | 265 to 267 °C | 42.6 ± 2.4 µM | 68.2 ± 3.9 µM | 84.6 ± 4.3 µM | 57.5 ± 3.4 µM | 31.1 ± 2.3 µM | 0.3393 | 4.8413 | 1.34 µM | 4.19 µM | – | 1.74 µM | – |
| NS(=O)(=O)c1cccc(Nc2nccc(-c3ccc(F)cc3)n2)c1 [Compound 5f, 3-((4-(4-Fluorophenyl)pyrimidin-2-yl)amino)benzenesulfonamide] | – | 51.4 ± 2.8 µM | 57.2 ± 3.2 µM | 46.8 ± 2.6 µM | 65.9 ± 3.7 µM | 26.9 ± 2 µM | 0.3694 | 3.8517 | 0.479 µM | 1.53 µM | 0.2 µM | – | – |
| Nc1nccc(-c2ccc(OC(F)(F)F)cc2)n1 [Compound 3e, 4-(4-(trifluoromethoxy)phenyl)pyrimidin-2-amine] | – | 47 ± 2.6 µM | 26.3 ± 1.8 µM | 39.1 ± 2.3 µM | 61.3 ± 3.5 µM | 74.6 ± 4.2 µM | – | – | – | – | – | – | – |
| COc1cccc2c1C(=O)c1c(O)c3c(c(O)c1C2=O)C[C@@](O)(C(=O)CO)C[C@@H]3O[C@H]1C[C@H](N)[C@H](O)[C@H](C)O1 [DOX, Doxorubicin, reference compound] | – | – | – | 4.5 ± 0.2 µM | – | – | – | – | – | – | – | – | – |
| COc1ccc(-c2ccnc(Nc3cccc(S(N)(=O)=O)c3)n2)cc1 [Compound 5c, 3-((4-(4-Methoxyphenyl)pyrimidin-2-yl)amino)benzenesulfonamide] | – | 29.8 ± 2.1 µM | 16.1 ± 1.3 µM | 24.4 ± 1.8 µM | 38.1 ± 2.4 µM | 56.3 ± 3.4 µM | 0.3538 | 4.0076 | 0.966 µM | 6.3 µM | 0.246 µM | – | – |
| N#Cc1cnc(Nc2ccccc2)nc1-c1ccccc1 [Compound 5m, 4-Phenyl-2-(phenylamino)pyrimidine-5-carbonitrile] | – | 9.83 ± 0.7 µM | 76.3 ± 4.3 µM | 88.4 ± 4.6 µM | 23.6 ± 1.5 µM | 73.3 ± 4.1 µM | 0.4289 | 2.9828 | 0.703 µM | 1.43 µM | – | 1.96 µM | – |
